Tested on: MV-4-11 cells
Test: Gene expression microarray analysis (Affymetrix PrimeView) and GSEA
Format: cell-based, human
Parameters: RFU PODN (11730768_x_at) / Fold change /veh PODN (11730768_x_at) / RFU LINC00158 (11744669_a_at) / Fold change /veh LINC00158 (11744669_a_at) / RFU DUSP10 (11751237_a_at) / Fold change /veh DUSP10 (11751237_a_at) / RFU ID3 (11757404_x_at) / Fold change /veh ID3 (11757404_x_at) / RFU PLEKHG5 (11737974_s_at) / Fold change /veh PLEKHG5 (11737974_s_at) / RFU LRRC4B (11730491_at) / Fold change /veh LRRC4B (11730491_at) / RFU GIMAP4 (11747438_a_at) / Fold change /veh GIMAP4 (11747438_a_at) / RFU KRT8 (11758183_x_at) / Fold change /veh KRT8 (11758183_x_at) / RFU CNN1 (11734310_a_at) / Fold change /veh CNN1 (11734310_a_at) / RFU VPS37D (11726825_at) / Fold change /veh VPS37D (11726825_at) / RFU C10orf10 (11716522_x_at) / Fold change /veh C10orf10 (11716522_x_at) / RFU KIR2DL2 /// KIR2DL4 /// KIR2DL5A /// KIR2DL5B /// KIR2DS1 /// KIR2DS2 /// KIR2DS3 /// KIR2DS4 /// KIR3DL3 /// KIR3DL3 /// KIR3DS1 (11738374_at) / Fold change /veh KIR2DL2 /// KIR2DL4 /// KIR2DL5A /// KIR2DL5B /// KIR2DS1 /// KIR2DS2 /// KIR2DS3 /// KIR2DS4 /// KIR3DL3 /// KIR3DL3 /// KIR3DS1 (11738374_at) / RFU C1QL1 (11718748_at) / Fold change /veh C1QL1 (11718748_at) / RFU TMPRSS4 (11747572_a_at) / Fold change /veh TMPRSS4 (11747572_a_at) / RFU HAMP (11756126_x_at) / Fold change /veh HAMP (11756126_x_at) / RFU RNFT2 (11725882_a_at) / Fold change /veh RNFT2 (11725882_a_at) / RFU NR4A2 (11747474_a_at) / Fold change /veh NR4A2 (11747474_a_at) / RFU ABCC12 (11746883_a_at) / Fold change /veh ABCC12 (11746883_a_at) / RFU TMEM136 (11760407_x_at) / Fold change /veh TMEM136 (11760407_x_at) / RFU CLDN22 /// WWC2 (11732394_at) / Fold change /veh CLDN22 /// WWC2 (11732394_at) / RFU HLA-DPB1 (11760878_x_at) / Fold change /veh HLA-DPB1 (11760878_x_at) / RFU SPINT1 (11716480_a_at) / Fold change /veh SPINT1 (11716480_a_at) / RFU GAP43 (11754022_s_at) / Fold change /veh GAP43 (11754022_s_at) / RFU A4GNT (11735810_at) / Fold change /veh A4GNT (11735810_at) / RFU PRB3 (11715151_x_at) / Fold change /veh PRB3 (11715151_x_at) / RFU TUBB4B (11761932_at) / Fold change /veh TUBB4B (11761932_at) / RFU CAPN14 (11732068_a_at) / Fold change /veh CAPN14 (11732068_a_at) / RFU TMCC2 (11721928_a_at) / Fold change /veh TMCC2 (11721928_a_at) / RFU IRGQ (11745062_a_at) / Fold change /veh IRGQ (11745062_a_at) / RFU FAM174B (11720279_a_at) / Fold change /veh FAM174B (11720279_a_at) / RFU TMPRSS4 (11748680_a_at) / Fold change /veh TMPRSS4 (11748680_a_at) / RFU FAM212B (11763350_a_at) / Fold change /veh FAM212B (11763350_a_at) / RFU PLEKHG5 (11743358_a_at) / Fold change /veh PLEKHG5 (11743358_a_at) / RFU ZSCAN30 (11745921_a_at) / Fold change /veh ZSCAN30 (11745921_a_at) / RFU CMKLR1 (11741424_a_at) / Fold change /veh CMKLR1 (11741424_a_at) / RFU LOC101060620 /// MAPK8IP1 (11723275_at) / Fold change /veh LOC101060620 /// MAPK8IP1 (11723275_at) / RFU SPTSSB (11747773_x_at) / Fold change /veh SPTSSB (11747773_x_at) / RFU PRSS12 (11739890_at) / Fold change /veh PRSS12 (11739890_at) / RFU BIN1 (11741810_x_at) / Fold change /veh BIN1 (11741810_x_at) / RFU WNT11 (11732464_a_at) / Fold change /veh WNT11 (11732464_a_at) / RFU C10orf10 (11716521_a_at) / Fold change /veh C10orf10 (11716521_a_at) / RFU C5orf56 (11738089_at) / Fold change /veh C5orf56 (11738089_at) / RFU CYB561 (11721691_x_at) / Fold change /veh CYB561 (11721691_x_at) / RFU ANKRD19P (11752326_a_at) / Fold change /veh ANKRD19P (11752326_a_at) / RFU OR2T12 /// OR2T33 /// OR2T8 (11738714_s_at) / Fold change /veh OR2T12 /// OR2T33 /// OR2T8 (11738714_s_at) / RFU VCAN (11748164_a_at) / Fold change /veh VCAN (11748164_a_at) / RFU JSRP1 (11732532_at) / Fold change /veh JSRP1 (11732532_at) / RFU KRTAP10-11 (11738290_x_at) / Fold change /veh KRTAP10-11 (11738290_x_at) / RFU MYO3A (11730013_a_at) / Fold change /veh MYO3A (11730013_a_at) / RFU EBF3 (11725865_a_at) / Fold change /veh EBF3 (11725865_a_at) / RFU CAMK2N1 (11719241_x_at) / Fold change /veh CAMK2N1 (11719241_x_at) / RFU C5orf56 (11738088_a_at) / Fold change /veh C5orf56 (11738088_a_at) / RFU OLFML3 (11715873_a_at) / Fold change /veh OLFML3 (11715873_a_at) / RFU LOC100653217 /// NTM (11731650_a_at) / Fold change /veh LOC100653217 /// NTM (11731650_a_at) / RFU MAPK11 (11762145_a_at) / Fold change /veh MAPK11 (11762145_a_at) / RFU FIZ1 (11724087_x_at) / Fold change /veh FIZ1 (11724087_x_at) / RFU OASL (11726364_x_at) / Fold change /veh OASL (11726364_x_at) / RFU SOX15 (11748057_x_at) / Fold change /veh SOX15 (11748057_x_at) / RFU CD79A (11719716_a_at) / Fold change /veh CD79A (11719716_a_at) / RFU HIST1H1D (11736915_at) / Fold change /veh HIST1H1D (11736915_at) / RFU CASKIN2 (11723855_a_at) / Fold change /veh CASKIN2 (11723855_a_at) / RFU LOC730098 (11760151_x_at) / Fold change /veh LOC730098 (11760151_x_at) / RFU OR4N2 (11742367_at) / Fold change /veh OR4N2 (11742367_at) / RFU PRRT2 (11749266_a_at) / Fold change /veh PRRT2 (11749266_a_at) / RFU SNX32 (11753110_a_at) / Fold change /veh SNX32 (11753110_a_at) / RFU CDHR5 (11726645_a_at) / Fold change /veh CDHR5 (11726645_a_at) / RFU RCAN1 (11760418_a_at) / Fold change /veh RCAN1 (11760418_a_at) / RFU FAM167A (11723789_a_at) / Fold change /veh FAM167A (11723789_a_at) / RFU FAM26E (11764081_at) / Fold change /veh FAM26E (11764081_at) / RFU ISYNA1 (11749810_s_at) / Fold change /veh ISYNA1 (11749810_s_at) / RFU ACY1 (11761880_at) / Fold change /veh ACY1 (11761880_at) / RFU 11764098_at / Fold change /veh 11764098_at / RFU SAMD14 (11745864_x_at) / Fold change /veh SAMD14 (11745864_x_at) / RFU NPB (11741838_a_at) / Fold change /veh NPB (11741838_a_at) / RFU TMPRSS6 (11731388_a_at) / Fold change /veh TMPRSS6 (11731388_a_at) / RFU KRTAP10-2 (11738614_at) / Fold change /veh KRTAP10-2 (11738614_at) / RFU ARHGAP8 /// PRR5-ARHGAP8 (11727945_x_at) / Fold change /veh ARHGAP8 /// PRR5-ARHGAP8 (11727945_x_at) / RFU KRTAP5-7 /// NADSYN1 (11734609_at) / Fold change /veh KRTAP5-7 /// NADSYN1 (11734609_at) / RFU RASL12 (11751679_a_at) / Fold change /veh RASL12 (11751679_a_at) / RFU CDKN2B (11736163_a_at) / Fold change /veh CDKN2B (11736163_a_at) / RFU PRF1 (11729649_at) / Fold change /veh PRF1 (11729649_at) / RFU, ZNF638 /// ZNF638-IT1 / Fold change vs veh, ZNF638 /// ZNF638-IT1 / RFU, PANK3 / Fold change vs veh, PANK3 / RFU, SH3YL1 / Fold change vs veh, SH3YL1 / RFU, ZEB2 / Fold change vs veh, ZEB2 / RFU, NRIP1 / Fold change vs veh, NRIP1 / RFU, PTTG1IP / Fold change vs veh, PTTG1IP / RFU, CAPN2 / Fold change vs veh, CAPN2 / RFU, MED14 / Fold change vs veh, MED14 / RFU, SNORA58 / Fold change vs veh, SNORA58 / RFU, C1orf63 / Fold change vs veh, C1orf63 / RFU, LRRFIP1 / Fold change vs veh, LRRFIP1 / RFU, NDUFAF7 / Fold change vs veh, NDUFAF7 / RFU, SLC12A2 / Fold change vs veh, SLC12A2 / RFU, IBTK / Fold change vs veh, IBTK / RFU, ESF1 / Fold change vs veh, ESF1 / Fold change vs veh, TMEM50B / RFU, TAOK1 / Fold change vs veh, TAOK1 / RFU, ACBD3 / Fold change vs veh, ACBD3 / RFU, TMA16 / Fold change vs veh, TMA16 / RFU, RWDD3 / Fold change vs veh, RWDD3 / RFU, BCAT1 / Fold change vs veh, BCAT1 / RFU, EDEM3 / Fold change vs veh, EDEM3 / RFU, TMEM33 / Fold change vs veh, TMEM33 / RFU, WDR75 / Fold change vs veh, WDR75 / RFU, AHCTF1 / Fold change vs veh, AHCTF1 / RFU, TFRC / Fold change vs veh, TFRC / RFU, ZDHHC17 / Fold change vs veh, ZDHHC17 / RFU, NOM1 / Fold change vs veh, NOM1 / RFU, ARL8B / Fold change vs veh, ARL8B / RFU, ZBTB11 / Fold change vs veh, ZBTB11 / RFU, TAMM41 / Fold change vs veh, TAMM41 / RFU, KIAA1704 /// LOC100996395 / Fold change vs veh, KIAA1704 /// LOC100996395 / RFU, ING1 / Fold change vs veh, ING1 / RFU, TRMT61B / Fold change vs veh, TRMT61B / RFU, FUBP3 / Fold change vs veh, FUBP3 / RFU, TP53 / Fold change vs veh, TP53 / RFU, TNKS2 / Fold change vs veh, TNKS2 / RFU, ZFP14 / Fold change vs veh, ZFP14 / RFU, ACTR2 / Fold change vs veh, ACTR2 / RFU, PPP3R1 / Fold change vs veh, PPP3R1 / RFU, PIK3R1 / Fold change vs veh, PIK3R1 / RFU, HNRNPA1 / Fold change vs veh, HNRNPA1 / RFU, RNF170 / Fold change vs veh, RNF170 / RFU, ZNF28 / Fold change vs veh, ZNF28 / RFU, RNGTT / Fold change vs veh, RNGTT / RFU, OGT / Fold change vs veh, OGT / RFU, BRD1 / Fold change vs veh, BRD1 / RFU, MARS / Fold change vs veh, MARS / RFU, ZNF655 / Fold change vs veh, ZNF655 / RFU, FAHD1 / Fold change vs veh, FAHD1 / RFU, BDP1 / Fold change vs veh, BDP1 / RFU, LRRCC1 / Fold change vs veh, LRRCC1 / RFU, ARID1A / Fold change vs veh, ARID1A / RFU, ZNF146 / Fold change vs veh, ZNF146 / RFU, ZNF330 / Fold change vs veh, ZNF330 / RFU, GPN3 / Fold change vs veh, GPN3 / RFU, C9orf123 / Fold change vs veh, C9orf123 / RFU, N4BP2L2 / Fold change vs veh, N4BP2L2 / RFU, ARFIP1 / Fold change vs veh, ARFIP1 / RFU, FAM179B / Fold change vs veh, FAM179B / RFU, BCL10 / Fold change vs veh, BCL10 / RFU, UHRF1BP1L / Fold change vs veh, UHRF1BP1L / RFU, BET1 / Fold change vs veh, BET1 / RFU, CNOT2 / Fold change vs veh, CNOT2 / RFU, ZNF268 / Fold change vs veh, ZNF268 / Fold change vs veh, ZNF507 / RFU, DGCR2 / Fold change vs veh, DGCR2 / RFU, WDSUB1 / Fold change vs veh, WDSUB1 / Fold change vs veh, HSP90B1 /// MIR3652 / RFU, ADSS / Fold change vs veh, ADSS / RFU, GK / Fold change vs veh, GK / RFU, ZNF148 / Fold change vs veh, ZNF148 / RFU, TAF9 / Fold change vs veh, TAF9 / RFU, SLC1A5 / Fold change vs veh, SLC1A5 / RFU, SLMO2 / Fold change vs veh, SLMO2 / RFU, ABCC4 / Fold change vs veh, ABCC4 / RFU, LOC101060439 /// RAP1B / Fold change vs veh, LOC101060439 /// RAP1B / RFU, RFX7 / Fold change vs veh, RFX7 / RFU, GTPBP10 / Fold change vs veh, GTPBP10 / RFU, CNEP1R1 / Fold change vs veh, CNEP1R1 / RFU, BIVM-ERCC5 /// ERCC5 / Fold change vs veh, BIVM-ERCC5 /// ERCC5 / RFU, ILF3 / Fold change vs veh, ILF3 / RFU 11762660_at / Fold change /veh 11762660_at / RFU VCAN (11757783_s_at) / Fold change /veh VCAN (11757783_s_at) / RFU DDX43 (11728927_at) / Fold change /veh DDX43 (11728927_at) / RFU KRT8 (11758188_x_at) / Fold change /veh KRT8 (11758188_x_at) / RFU NKD1 (11759106_at) / Fold change /veh NKD1 (11759106_at) / RFU SRD5A1 (11742802_a_at) / Fold change /veh SRD5A1 (11742802_a_at) / RFU TPSAB1 /// TPSB2 (11721975_s_at) / Fold change /veh TPSAB1 /// TPSB2 (11721975_s_at) / RFU GSTM3 (11746129_a_at) / Fold change /veh GSTM3 (11746129_a_at) / RFU IL23R (11737362_x_at) / Fold change /veh IL23R (11737362_x_at) / RFU TMEM51 (11727254_a_at) / Fold change /veh TMEM51 (11727254_a_at) / RFU PIWIL2 (11732686_x_at) / Fold change /veh PIWIL2 (11732686_x_at) / RFU ORM1 (11744905_x_at) / Fold change /veh ORM1 (11744905_x_at) / RFU CCDC152 (11743942_at) / Fold change /veh CCDC152 (11743942_at) / RFU ECM1 (11717891_a_at) / Fold change /veh ECM1 (11717891_a_at) / RFU IL23R (11748794_a_at) / Fold change /veh IL23R (11748794_a_at) / RFU TNFAIP8L3 (11732012_x_at) / Fold change /veh TNFAIP8L3 (11732012_x_at) / RFU MBOAT4 (11741988_at) / Fold change /veh MBOAT4 (11741988_at) / RFU 11764193_at / Fold change /veh 11764193_at / RFU TMEM53 (11763286_at) / Fold change /veh TMEM53 (11763286_at) / RFU MAGEB2 (11727129_at) / Fold change /veh MAGEB2 (11727129_at) / RFU TMEM200A (11744735_a_at) / Fold change /veh TMEM200A (11744735_a_at) / RFU CCDC152 (11751479_a_at) / Fold change /veh CCDC152 (11751479_a_at) / RFU FAM211A (11726209_a_at) / Fold change /veh FAM211A (11726209_a_at) / RFU RGS16 (11746705_a_at) / Fold change /veh RGS16 (11746705_a_at) / RFU VCAN (11755009_s_at) / Fold change /veh VCAN (11755009_s_at) / RFU RHOB (11743442_s_at) / Fold change /veh RHOB (11743442_s_at) / RFU RGS16 (11720943_a_at) / Fold change /veh RGS16 (11720943_a_at) / RFU RGS16 (11720944_at) / Fold change /veh RGS16 (11720944_at) / RFU, VPS4B / Fold change vs veh, VPS4B / RFU, CREB1 / Fold change vs veh, CREB1 / RFU, DNAJC13 / Fold change vs veh, DNAJC13 / RFU, GNAQ / Fold change vs veh, GNAQ / RFU, CDK5R1 / Fold change vs veh, CDK5R1 / RFU, ZRANB3 / Fold change vs veh, ZRANB3 / RFU, CUL4A / Fold change vs veh, CUL4A / RFU, CCNY / Fold change vs veh, CCNY / RFU, UFL1 / Fold change vs veh, UFL1 / RFU, COG3 / Fold change vs veh, COG3 / RFU, DIAPH2 / Fold change vs veh, DIAPH2 / RFU, SKA2 / Fold change vs veh, SKA2 / RFU, AFF3 / Fold change vs veh, AFF3 / RFU, LMF1 / Fold change vs veh, LMF1 / RFU, IPO11 / Fold change vs veh, IPO11 / RFU, DFFB / Fold change vs veh, DFFB / RFU, FOXP1 / Fold change vs veh, FOXP1 / RFU, CARD8 / Fold change vs veh, CARD8 / RFU, STRN3 / Fold change vs veh, STRN3 / RFU, ADK / Fold change vs veh, ADK / RFU, RASSF2 / Fold change vs veh, RASSF2 / RFU, WIPF1 / Fold change vs veh, WIPF1 / RFU, LARP1B / Fold change vs veh, LARP1B / RFU, RASA1 / Fold change vs veh, RASA1 / RFU, RB1 / Fold change vs veh, RB1 / RFU, PPFIA1 / Fold change vs veh, PPFIA1 / RFU, MAT2A / Fold change vs veh, MAT2A / RFU, CCT5 / Fold change vs veh, CCT5 / RFU, WDR92 / Fold change vs veh, WDR92 / RFU, CUX1 / Fold change vs veh, CUX1 / RFU, TTC7A / Fold change vs veh, TTC7A / RFU, TMEM135 / Fold change vs veh, TMEM135 / RFU, DEPTOR / Fold change vs veh, DEPTOR / RFU, CPM / Fold change vs veh, CPM / RFU, DNAJB6 / Fold change vs veh, DNAJB6 / RFU, CACNA2D3 / Fold change vs veh, CACNA2D3 / RFU, DTX4 / Fold change vs veh, DTX4 / RFU, TFCP2 / Fold change vs veh, TFCP2 / RFU, GMCL1 /// GMCL1P1 / Fold change vs veh, GMCL1 /// GMCL1P1 / RFU, AEBP2 / Fold change vs veh, AEBP2 / RFU, SNHG1 /// SNORD22 /// SNORD25 /// SNORD26 /// SNORD27 /// SNORD28 /// SNORD29 /// SNORD31 / Fold change vs veh, SNHG1 /// SNORD22 /// SNORD25 /// SNORD26 /// SNORD27 /// SNORD28 /// SNORD29 /// SNORD31 / Fold change (Aza/veh), C12orf56 (ProbeSet 11735607_a_at) / Fold change (ACY-1035/veh), C12orf56 (ProbeSet 11735607_a_at) / Fold change (Aza/veh), FGFR1OP (ProbeSet 11751329_s_at) / Fold change (ACY-1035/veh), FGFR1OP (ProbeSet 11751329_s_at) / Fold change (Aza/veh), VPS36 (ProbeSet 11739960_a_at) / Fold change (ACY-1035/veh), VPS36 (ProbeSet 11739960_a_at) / RFU SYPL1 (11715823_x_at) / Fold change /veh SYPL1 (11715823_x_at) / RFU IGFBP7 (11715501_s_at) / Fold change /veh IGFBP7 (11715501_s_at) / RFU REEP3 (11722064_at) / Fold change /veh REEP3 (11722064_at) / RFU IGLL1 (11728026_x_at) / Fold change /veh IGLL1 (11728026_x_at): dose or concentration left out as unconfirmed
Conditions: MV-4-11 cells, 48 hours

Nc1ncn([C@@H]2O[C@H](CO)[C@@H](O)[C@H]2O)c(=O)n1 [azacitidine]
RFU CAMK2N1 (11719241_x_at): 56.90 RFU
